Series [1] has as its system Cryptococcus neoformans ATCC36556 (CN). Nature of the series: in vitro antifungal activity, minimum inhibitory concentration. The series is classed as cell-based. The method, then:
(§1) The antifungal activities of representative 1,2-dithiin compounds listed below were determined in vitro using three fungal cultures: Candida albicans ATCC10259 (CA), Cryptococcus neoformans ATCC36556 (CN), and Aspergillus fumigatus ATCC13073 (AF).
(§2) The method used to determine in vitro antifungal activity is discussed in McGinnis, M. R., Laboratory Handbook of Medical Mycology, Academic Press, New York, London, p. 661 (1980); and Drouget, E.; Dupont, B.; Improvist, L.; Vivian, M. A.; and Tortorano, A. M.; "Disc Agar Diffusion and Microplate Automatized Techniques for In Vitro Evaluation of Antifungal Agents on Yeast and Sporulated Pathogenic Fungi" in In Vitro and In Vivo Evaluation of Antifungal Agents, Eds. lwata, K. and Vanden Bossche, H., Elsevier Science Publishers, New York, Oxford, p. 303 (1986).

The test system of series [2] is Aspergillus fumigatus ATCC13073 (AF). The series is described as above. The series is classed as cell-based. Here is the method:
as §1, §2

The subject of series [3] is Candida albicans ATCC10259 (CA). The series is described as above. The series is classed as cell-based. Here is the method: as §1, §2
Series [4] relates to Candida krusei GK7831 (CK). The series is described as above. The series is classed as cell-based. The following applies: Pichia kudriavzevii.
From the text: (§3) Additionally, two 1,2-dithiin compounds, 3-(hydroxymethyl)-6-[N-hydroxyiminomethyl]-1,2-dithiin and 3,6-[bis(N-hydroxyiminomethyl)]-1,2-dithiin, were chosen as compounds representative of the 1,2-dithiin class to be tested against a variety of fungi: Candida albicans A-26 (A-26), Candida albicans B311 (B311), Candida krusei GK7831 (CK), Candida parapsilosis CP18 (CP), Candida tropicalis 1525 (CT), Cryptococcus neoformans MI-106 (MI-106), Aspergillus fumigatus WM-1 (WM-1) and Trichophyton rubrum ATCC18762 (TR). The minimum inhibitory concentration (MIC) for 3-(hydroxymethyl)-6-[N-hydroxyiminomethyl]-1,2-dithiin and 3,6-[bis(N-hydroxyiminomethyl)]-1,2-dithiin are shown below in Table II.
as §2

Series [5] concerns Candida albicans A-26 (A-26). Described as above. It counts as cell-based. The following applies: Candida albicans A-26, in vitro.
From the text: as §3, §2

The subject of series [6] is Candida parapsilosis CP18 (CP). The description is as above. It counts as cell-based. The following applies: Lodderomyces parapsilosis.
From the text: as §3, §2

The test system of series [7] is Aspergillus fumigatus WM-1 (WM-1). Described as above. The following applies: Aspergillus fumigatus WM-1, in vitro. The series is classed as cell-based.
From the text: as §3, §2

Series [8] concerns Candida tropicalis 1525 (CT). The series is described as above. The series is classed as cell-based. The note with it: Candida tropicalis 1525, in vitro.
From the text: as §3, §2

Series [9] deals with Trichophyton rubrum ATCC18762 (TR). The description is as above. It counts as cell-based.
From the text: as §3, §2

In series [10] the test system is Candida albicans B311 (B311). The description is as above. The series is classed as cell-based.
From the text: as §3, §2

In series [11] the test system is Cryptococcus neoformans MI-106 (MI-106). Described as above. The series is classed as cell-based. The note with it: Cryptococcus neoformans MI-106, in vitro.
From the text: as §3, §2

In the next series the test system is fungi. The note with it: natural products, literature; cited from earlier work.
For series [12] the following is noted: literature; cited from earlier work.
Another series concerns virus. The note with it: literature; cited from earlier work.

Values after ≈ are worked out from the molar mass of the structure shown.

As to `OCC1=CC=C(C=NO)SS1` [3-(Hydroxymethyl)-6-[N-hydroxyiminomethyl]-1,2-dithiin], the MIC in series [1] stood at 1.6 µg/mL (≈ 8.45 µM); in [2], 1.6 µg/mL (≈ 8.45 µM); in [3] it was 1.6 µg/mL (≈ 8.45 µM); in series [4], 6.3 µg/mL (≈ 33.3 µM); in series [5], 1.6 µg/mL (≈ 8.45 µM); in [6], 3.1 µg/mL (≈ 16.4 µM). Moreover, the MIC in [7] stood at 1.6 µg/mL (≈ 8.45 µM); in [8], 6.3 µg/mL (≈ 33.3 µM); in series [9], 0.8 µg/mL (≈ 4.23 µM); in series [10] it was 1.6 µg/mL (≈ 8.45 µM); in series [11] it was 1.6 µg/mL (≈ 8.45 µM).
Turning to `N#CC1=CC=C(CO)SS1` [3-(Hydroxymethyl)-6-cyano-1,2-dithiin], the MIC in series [1], in series [2] and in [3] was 0.8 µg/mL (≈ 4.67 µM) in each case.
On to `COC(=O)/C=C/C1=CC=C(CO)SS1` [3-(Hydroxymethyl)-6-[methyl propenoate-3-yl]-1,2-dithiin], for which the MIC in series [1], in series [2] and in [3] was 6.3 µg/mL (≈ 27.4 µM) in each case.
As to `O=CC1=CC=C(C=O)SS1` [3-6-Bis(formyl)-1,2-dithiin, 3,6-Bis(formyl)-1,2-dithiin], the figures for the MIC in series [1], in series [2] and in series [3] were 1.6 µg/mL (≈ 9.29 µM), 6.3 µg/mL (≈ 36.6 µM) and 1.6 µg/mL (≈ 9.29 µM), respectively.
`ON=CC1=CC=C(C=NO)SS1` [3,6-[Bis(N-hydroxyiminomethyl)]-1,2-dithiin]: the MIC in series [1] is 0.8 µg/mL (≈ 3.96 µM); in [2], 0.4 µg/mL (≈ 1.98 µM); in [3], 0.1 µg/mL (≈ 0.494 µM); in series [4] it was 6.3 µg/mL (≈ 31.1 µM); in series [5], 0.2 µg/mL (≈ 0.989 µM); in [6], 0.2 µg/mL (≈ 0.989 µM). Besides, the minimal inhibitory concentration (MIC) was determined as 0.2 µg/mL (≈ 0.989 µM) in series [7]; 1.6 µg/mL (≈ 7.91 µM) in [8]; 0.05 µg/mL (≈ 0.247 µM) in [9]; 0.1 µg/mL (≈ 0.494 µM) in [10]; 1.6 µg/mL (≈ 7.91 µM) in [11].
For `CON=CC1=CC=C(C=NOC)SS1` [3,6-Bis[N-methoxyiminomethyl]-1,2-dithiin], the results for the minimum inhibitory concentration (MIC) in series [1], in series [2] and in [3] were 1.6 µg/mL (≈ 6.95 µM), 6.3 µg/mL (≈ 27.4 µM) and 0.8 µg/mL (≈ 3.47 µM), respectively.
With `C=CC#CC#CC1=CC=C(C#CC)SS1` [Thiarubrine A], in the series with fungi, the antifungal activity entry is “possess both antifungal and antiviral activity”. Moreover, the cytotoxicity entry in [12] is “cytotoxic”. In the series with virus, the antiviral activity entry was “possess both antifungal and antiviral activity”.
As for `CCOC(=O)/C=C/C1=CC=C(CO)SS1` [3-(Hydroxymethyl)-6-[ethyl propenoate-3-yl]-1,2-dithiin], the minimum inhibitory concentration (MIC) amounted to 6.3 µg/mL (≈ 25.8 µM) in series [1], 25 µg/mL (≈ 102 µM) in [2] and 12.5 µg/mL (≈ 51.2 µM) in series [3].
Consider `CON=CC1=CC=C(CO)SS1` [3-(Hydroxymethyl)-6-[N-methoxyiminomethyl]-1,2-dithiin], for which the MIC in [1], in series [2] and in series [3] was 6.3 µg/mL (≈ 31 µM) in each case.
With `O=CC1=CC=C(CO)SS1` [3-(Hydroxymethyl)-6-formyl-1,2-dithiin, 3-(Hydroxymethyl)-6-aldehydyl-1,2-dithiin], the MIC in series [1] was determined as 6.3 µg/mL (≈ 36.2 µM); in [2], 25 µg/mL (≈ 143 µM); in [3], 12.5 µg/mL (≈ 71.7 µM).
The matching figures for `N#C/C=C/C1=CC=C(CO)SS1` [3-(Hydroxymethyl)-6-[2-cyanoethene-1-yl]-1,2-dithiin]: 3.1 µg/mL (≈ 15.7 µM), 6.3 µg/mL (≈ 31.9 µM) and 12.5 µg/mL (≈ 63.4 µM).

The term MIC denotes the least concentration at which growth counts as inhibited.

The record behind these values is patent US5580897A, “1,2-dithiins having antifungal activity” (Shaman Pharmaceuticals, Inc., priority 1995, dated 1996).
